Laboratory results: patent US11802111B2, “Cyclobutyl amide monoacylglycerol lipase modulators” (Janssen Pharmaceutica NV, priority 2020, dated 2023)

target: human MGL from HeLa cells (Homo sapiens (Human), UniProt Q99685); assay: MGL in vitro activity assay ([glycerol-1,3-3H]-oleoyl glycerol hydrolysis, activated carbon filtration); type: biochemical; conditions: 300 nM [Glycerol-1,3-3H]-oleoyl glycerol, one hour
Method in brief: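 Activity measured as tritium in the flow-through after activated carbon filtration of a 1 h reaction containing 300 nM 3H-oleoyl glycerol, compound and HeLa-derived human MGL. Compounds screened at 10 μM; IC50 series start at an empirically chosen highest concentration.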

Chain of human MGL from HeLa cells (Q99685 whole entry): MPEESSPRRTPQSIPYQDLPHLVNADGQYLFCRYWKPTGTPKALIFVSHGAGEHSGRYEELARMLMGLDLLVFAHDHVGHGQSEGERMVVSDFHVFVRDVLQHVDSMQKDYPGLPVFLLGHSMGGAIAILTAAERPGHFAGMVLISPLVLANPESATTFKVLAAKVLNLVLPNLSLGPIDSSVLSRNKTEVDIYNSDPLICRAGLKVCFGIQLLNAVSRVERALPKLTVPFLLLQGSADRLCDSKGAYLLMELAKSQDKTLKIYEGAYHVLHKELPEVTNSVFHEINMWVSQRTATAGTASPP

Row | SMILES | IC50 [nM]
1 | Cc1cc(C2CC2)cc(C2CCC3(CC2)CN(C(=O)[C@H]2C[C@@](C)(O)C2)C3)c1 [Example 143, (7-(3-Cyclopropyl-5-methylphenyl)-2-azaspiro[3.5]nonan-2-yl)((1s,3s)-3-hydroxy-3-methylcyclobutyl)methanone] | 4.5
2 | CCc1cc(OC)cc(C2CCC3(CC2)CN(C(=O)[C@H]2C[C@@](C)(O)C2)C3)c1 [Example 145, (7-(3-Ethyl-5-methoxyphenyl)-2-azaspiro[3.5]nonan-2-yl)((1s,3s)-3-hydroxy-3-methylcyclobutyl)methanone] | 31
3 | CCc1cc(C2CCC3(CC2)CN(C(=O)[C@H]2C[C@@](C)(O)C2)C3)cc(C(F)(F)F)c1 [Example 146, (7-(3-Ethyl-5-(trifluoromethyl)phenyl)-2-azaspiro[3.5]nonan-2-yl)((1s,3s)-3-hydroxy-3-methylcyclobutyl)methanone] | 4.6
4 | CCc1cc(OC(F)(F)F)cc(C2CCC3(CC2)CN(C(=O)[C@H]2C[C@@](C)(O)C2)C3)c1 [Example 148, (7-(3-Ethyl-5-(trifluoromethoxy)phenyl)-2-azaspiro[3.5]nonan-2-yl)((1s,3s)-3-hydroxy-3-methylcyclobutyl)methanone] | 9.4
5 | C[C@]1(O)C[C@@H](C(=O)N2CC3(CCC(c4cc(Cl)cc(OC(F)(F)F)c4)CC3)C2)C1 [Example 149, (7-(3-Chloro-5-(trifluoromethoxy)phenyl)-2-azaspiro[3.5]nonan-2-yl)((1s,3s)-3-hydroxy-3-methylcyclobutyl)methanone] | 1.7
6 | CCOc1ccc(C2CCC3(CC2)CN(C(=O)[C@H]2C[C@@](C)(O)C2)C3)cc1C(F)(F)F [Example 150, (7-(4-Ethoxy-3-(trifluoromethyl)phenyl)-2-azaspiro[3.5]nonan-2-yl)((1s,3s)-3-hydroxy-3-methylcyclobutyl)methanone] | 17
7 | CC(C)c1cccc(C2(O)CCC3(CC2)CN(C(=O)[C@H]2C[C@@](C)(O)C2)C3)c1 [Example 151, ((1s,3s)-3-Hydroxy-3-methylcyclobutyl)(7-hydroxy-7-(3-isopropylphenyl)-2-azaspiro[3.5]nonan-2-yl)methanone] | 4.6
8 | Cc1c(CC2CC3(C2)CN(C(=O)[C@H]2C[C@@](C)(O)C2)C3)cccc1C1CC1 [Example 154, (6-(3-Cyclopropyl-2-methylbenzyl)-2-azaspiro[3.3]heptan-2-yl)((1s,3s)-3-hydroxy-3-methylcyclobutyl)methanone] | 1.7
9 | Cc1c(CC2CC3(C2)CN(C(=O)[C@H]2C[C@@](C)(O)C2)C3)cccc1C(F)(F)F [Example 155, ((1s,3s)-3-Hydroxy-3-methylcyclobutyl)(6-(2-methyl-3-(trifluoromethyl)benzyl)-2-azaspiro[3.3]heptan-2-yl)methanone] | 3
10 | Cc1cccc(CC2CC3(C2)CN(C(=O)[C@H]2C[C@@](C)(O)C2)C3)c1C [Example 156, (6-(2,3-Dimethylbenzyl)-2-azaspiro[3.3]heptan-2-yl)((1s,3s)-3-hydroxy-3-methylcyclobutyl)methanone] | 11
11 | C[C@]1(O)C[C@@H](C(=O)N2CC3(CC(Cc4cccc(OC(F)F)c4)C3)C2)C1 [Example 157, (6-(3-(Difluoromethoxy)benzyl)-2-azaspiro[3.3]heptan-2-yl)((1s,3s)-3-hydroxy-3-methylcyclobutyl)methanone] | 29
12 | CCc1ccccc1CC1CC2(C1)CN(C(=O)[C@H]1C[C@@](C)(O)C1)C2 [Example 158, (6-(2-Ethylbenzyl)-2-azaspiro[3.3]heptan-2-yl)((1s,3s)-3-hydroxy-3-methylcyclobutyl)methanone] | 9.2
13 | Cc1cccc(CC2CCC3(CC2)CN(C(=O)[C@H]2C[C@@](C)(O)C2)C3)c1 [Example 159, ((1s,3s)-3-Hydroxy-3-methylcyclobutyl)(7-(3-methylbenzyl)-2-azaspiro[3.5]nonan-2-yl)methanone] | 31
14 | C[C@]1(O)C[C@@H](C(=O)N2CC3(CCC(Cc4cccc(OC(F)F)c4)CC3)C2)C1 [Example 160, (7-(3-(Difluoromethoxy)benzyl)-2-azaspiro[3.5]nonan-2-yl)((1s,3s)-3-hydroxy-3-methylcyclobutyl)methanone] | 38
15 | C[C@]1(O)C[C@@H](C(=O)N2CC3(CCC(Cc4ccc(OC(F)F)cc4)CC3)C2)C1 [Example 161, (7-(4-(Difluoromethoxy)benzyl)-2-azaspiro[3.5]nonan-2-yl)((1s,3s)-3-hydroxy-3-methylcyclobutyl)methanone] | 19
16 | C[C@]1(O)C[C@@H](C(=O)N2CC3(CCC(Cc4cccc(C(F)F)c4)CC3)C2)C1 [Example 163, (7-(3-(Difluoromethyl)benzyl)-2-azaspiro[3.5]nonan-2-yl)((1s,3s)-3-hydroxy-3-methylcyclobutyl)methanone] | 61
17 | C[C@]1(O)C[C@@H](C(=O)N2CC3(CC(Cc4ccccc4)C3)C2)C1 [Example 164, (6-Benzyl-2-azaspiro[3.3]heptan-2-yl)((1s,3s)-3-hydroxy-3-methylcyclobutyl)methanone] | 52
18 | C[C@]1(O)C[C@@H](C(=O)N2CC3(CC(Cc4cccnc4)C3)C2)C1 [Example 168, ((1s,3s)-3-Hydroxy-3-methylcyclobutyl)(6-(pyridin-3-ylmethyl)-2-azaspiro[3.3]heptan-2-yl)methanone] | 1370
19 | C[C@]1(O)C[C@@H](C(=O)N2CCC3(CC2)CC(Cc2ccccc2)C3)C1 [Example 172, (2-Benzyl-7-azaspiro[3.5]nonan-7-yl)((1s,3s)-3-hydroxy-3-methylcyclobutyl)methanone] | 74
20 | Cc1ccccc1CC1CC2(C1)CN(C(=O)[C@H]1C[C@@](C)(O)C1)C2 [Example 184, ((1s,3s)-3-Hydroxy-3-methylcyclobutyl)(6-(2-methylbenzyl)-2-azaspiro[3.3]heptan-2-yl)methanone] | 14
21 | CC(C)c1cccc(CC2CC3(C2)CN(C(=O)[C@H]2C[C@@](C)(O)C2)C3)c1 [Example 186, ((1s,3s)-3-Hydroxy-3-methylcyclobutyl)(6-(3-isopropylbenzyl)-2-azaspiro[3.3]heptan-2-yl)methanone] | 4.7
22 | CC(C)c1ccccc1CC1CC2(C1)CN(C(=O)[C@H]1C[C@@](C)(O)C1)C2 [Example 187, ((1s,3s)-3-Hydroxy-3-methylcyclobutyl)(6-(2-isopropylbenzyl)-2-azaspiro[3.3]heptan-2-yl)methanone] | 12
23 | Cc1ccc(CC2CC3(C2)CN(C(=O)[C@H]2C[C@@](C)(O)C2)C3)cc1C [Example 188, (6-(3,4-Dimethylbenzyl)-2-azaspiro[3.3]heptan-2-yl)((1s,3s)-3-hydroxy-3-methylcyclobutyl)methanone] | 4.3

Continued, values first:

Row | IC50 [nM] | SMILES
24 | 20 | COc1cc(C2CC2)cc(C2CCC3(CC2)CN(C(=O)[C@H]2C[C@@](C)(O)C2)C3)c1 [Example 141, (7-(3-Cyclopropyl-5-methoxyphenyl)-2-azaspiro[3.5]nonan-2-yl)((1s,3s)-3-hydroxy-3-methylcyclobutyl)methanone]
25 | 121 | COc1ccc(C2CCC3(CC2)CN(C(=O)[C@H]2C[C@@](C)(O)C2)C3)cc1C1CC1 [Example 142, (7-(3-Cyclopropyl-4-methoxyphenyl)-2-azaspiro[3.5]nonan-2-yl)((1s,3s)-3-hydroxy-3-methylcyclobutyl)methanone]
26 | 16 | CCc1cccc(C2CCC3(CC2)CN(C(=O)[C@H]2C[C@@](C)(O)C2)C3)c1OC [Example 144, (7-(3-Ethyl-2-methoxyphenyl)-2-azaspiro[3.5]nonan-2-yl)((1s,3s)-3-hydroxy-3-methylcyclobutyl)methanone]
27 | 6.4 | Cc1cc(C)cc(C2CCC3(CC2)CN(C(=O)[C@H]2C[C@@](C)(O)C2)C3)c1 [Example 147, (7-(3,5-Dimethylphenyl)-2-azaspiro[3.5]nonan-2-yl)((1s,3s)-3-hydroxy-3-methylcyclobutyl)methanone]
28 | 22 | CC(C)(C)c1cccc(C2CC3(CCN(C(=O)[C@H]4C[C@@](C)(O)C4)CC3)C2)c1 [Example 153, (2-(3-(tert-Butyl)phenyl)-7-azaspiro[3.5]nonan-7-yl)((1s,3s)-3-hydroxy-3-methylcyclobutyl)methanone]
29 | 29 | C[C@]1(O)C[C@@H](C(=O)N2CC3(CCC(Cc4ccc(C(F)F)cc4)CC3)C2)C1 [Example 162, (7-(4-(Difluoromethyl)benzyl)-2-azaspiro[3.5]nonan-2-yl)((1s,3s)-3-hydroxy-3-methylcyclobutyl)methanone]
30 | 21 | Cc1cccc(CC2CC3(C2)CN(C(=O)[C@H]2C[C@@](C)(O)C2)C3)c1 [Example 165, ((1s,3s)-3-Hydroxy-3-methylcyclobutyl)(6-(3-methylbenzyl)-2-azaspiro[3.3]heptan-2-yl)methanone]
31 | 14 | Cc1ccc(CC2CC3(C2)CN(C(=O)[C@H]2C[C@@](C)(O)C2)C3)cc1 [Example 166, ((1s,3s)-3-Hydroxy-3-methylcyclobutyl)(6-(4-methylbenzyl)-2-azaspiro[3.3]heptan-2-yl)methanone]
32 | 1390 | C[C@]1(O)C[C@@H](C(=O)N2CC3(CC(Cc4ccccn4)C3)C2)C1 [Example 167, ((1s,3s)-3-Hydroxy-3-methylcyclobutyl)(6-(pyridin-2-ylmethyl)-2-azaspiro[3.3]heptan-2-yl)methanone]
33 | 28 | Cc1ccc(CC2CC3(CCN(C(=O)[C@H]4C[C@@](C)(O)C4)CC3)C2)cc1 [Example 173, ((1s,3s)-3-Hydroxy-3-methylcyclobutyl)(2-(4-methylbenzyl)-7-azaspiro[3.5]nonan-7-yl)methanone]
34 | 2.3 | CC(C)c1ccc(CC2CC3(C2)CN(C(=O)[C@H]2C[C@@](C)(O)C2)C3)cc1 [Example 185, ((1s,3s)-3-Hydroxy-3-methylcyclobutyl)(6-(4-isopropylbenzyl)-2-azaspiro[3.3]heptan-2-yl)methanone]
35 | 3.5 | Cc1ccc(CC2CC3(C2)CN(C(=O)[C@H]2C[C@@](C)(O)C2)C3)cc1C(F)(F)F [Example 189, ((1s,3s)-3-Hydroxy-3-methylcyclobutyl)(6-(4-methyl-3-(trifluoromethyl)benzyl)-2-azaspiro[3.3]heptan-2-yl)methanone]
